Assay results taken from patent US20260184675A1, “CHIRAL ISOMERIC SULFITE COMPOUND AND APPLICATION THEREOF” (Chengdu Hanova BioSciences Co., Ltd, priority 2024, published 2026).

Columns and labels:
[1] = system: eggs of Spodoptera litura; test: Effect on hatching of eggs of Spodoptera litura, egg piece soaking; assay type: in vivo; settings: 500 ppm; for Hatching rate (%), Replicate 1 / Hatching rate (%), Replicate 2 / Hatching rate (%), Replicate 3 / Number of unhatched larvae 4 days after insecticide delivery, Replicate 1 / Number of unhatched larvae 4 days after insecticide delivery, Replicate 2 / Number of unhatched larvae 4 days after insecticide delivery, Replicate 3: Spodoptera litura eggs; for Hatching rate (%), Replicate 1 / Hatching rate (%), Replicate 2 / Hatching rate (%), Replicate 3: 4 days after delivery; for Number of unhatched larvae 4 days after insecticide delivery, Replicate 1 / Number of unhatched larvae 4 days after insecticide delivery, Replicate 2 / Number of unhatched larvae 4 days after insecticide delivery, Replicate 3: soaked 10 minutes
Protocol: • (1) Preparation of paper containing eggs: the egg mass was cut into small pieces, each containing about 60 eggs, soaked in a preformulated test agent for 10 minutes together with paper for egg raising (concentration of each compound of 500 ppm). After taken out, absorbent paper was used to absorb the excess solution adhered to the paper for egg raising and egg pieces. (2) Cultivation: Each egg piece was separately placed in a glass test tube (5.0 cm in height, 2.5 cm in diameter, the same below), which was sealed with plastic paper punctured with fine holes using insect needles and cultivated in an artificial climate chamber at a temperature of (24±1° C.), a relative humidity of (80±10) %, and a photoperiod of L:D=12:12. When the eggs developed until they were about to hatch, castor leaves with a diameter of about 3 cm were added for feeding the hatching larvae; • (3) Observation: the number of hatched and unhatched eggs per egg piece was checked and recorded, and the hatching rate of eggs was calculated according to the formula. Each treatment was repeated for 3 times. • (4) Survey of results: The experimental materials of each treatment group were regularly hydrated and moisturized, and the hatching of eggs was observed. On the 4th day after insecticide delivery, the number of hatched eggs for each treatment was recorded, and the survey of results was recorded in the original notebook. According to the experimental requirements and characteristics of agents, the survey time can be shortened or extended. • 1) Surveying and recording the number of hatched eggs for each treatment. • 2) Recording the developmental status of experimental eggs of Spodoptera litura, behavior status of nymphs, including abnormal phenomena such as delayed or stopped development of eggs of Spodoptera litura, etc. • (5) Calculation method: Based on the survey data, the prevention and control effect of each treatment was calculated according to the following formula, and the calculation results were kept to two decimal places. [formula] [formula]

Magnaporthe grisea = assay type: cell-based; settings: 100 ppm; for Average antifungal rate (%) / Antifungal rate of Magnaporthe grisea (%), Replicate 1 / Antifungal rate of Magnaporthe grisea (%), Replicate 2 / Antifungal rate of Magnaporthe grisea (%), Replicate 3: 96-well plate; for Average antifungal rate (%): average of 3 replicates
[2] = system: pest eggs of Tetranychus cinnabarinus; test: Effect on hatching of pest eggs of Tetranychus cinnabarinus, leaf disc method; assay type: in vivo; settings: for Hatching rate (%): 7 days after insecticide delivery; for inhibitory effect on the hatching of pest eggs of Tetranychus cinnabarinus (in words): 1 ppm
Protocol: • (1) Preparation of leaf discs containing eggs: 20 female adult mites of Tetranychus cinnabarinus were transferred onto leaf discs of Vicia faba with a diameter of 2.0 cm (with wetted filter paper at the bottom), then covered it with a lidded culture dish and cultivated under moisturizing conditions, the adult mites were removed within 36 hours and microscopic examination and counting were performed on leaf discs containing eggs. • (2) Investigation of egg population base: Before pesticide soaking, a microscopic examination was conducted on the egg basic number of each leaf disc, with 2 replicates set for each treatment. • (3) Pesticide soaking treatment: The leaf butterflies loaded with mite eggs were soaked in clear water and sulfite compounds for 10 seconds, respectively, then taken out and cultivated under moisturizing conditions. Each treatment should be repeated for no less than 3 times. • (4) Cultivation and observation: The […] were cultivated under normal conditions. Five days after insecticide delivery, the hatching status of mite eggs was investigated. • Note: The temperature and humidity conditions of the constant temperature and humidity incubator after the treatment should be controlled so as to avoid excessive temperature differences, which may cause generation and dripping of condensate water in the culture dish, resulting in abnormal death of eggs due to soaking in water; it is also necessary to ensure sufficient strong ambient light, without directing irradiating the leaves. • (5) Survey of Results: The experimental materials of each treatment group were regularly hydrated and moisturized, and the hatching of eggs was observed. On the 7th day after insecticide delivery, the number of hatched eggs for each treatment was recorded, and the survey of results was recorded in the original notebook. According to the experimental requirements and characteristics of agents, the survey time can be shortened or extended. • 1) Surveying and recording the number of hatched eggs for each treatment. • 2) Photographing and recording whether there was any pesticide damage to the leaf discs of Vicia faba. • 3) Recording the developmental status of experimental mite eggs, behavior status of nymph mites, including abnormal phenomena such as delayed or stopped development of mite eggs, difficulty in breaking hull for nymph mites, or painful struggles after hatching, etc. • (6) Calculation method: Based on the survey data, the prevention and control effect of each treatment was calculated according to the following formula, and the calculation results were kept to two decimal places. [formula] [formula] [table]

| Compound | inhibitory rate against Magnaporthe grisea (in words) (Magnaporthe grisea) | Average antifungal rate (%) (Magnaporthe grisea) | Antifungal rate of Magnaporthe grisea (%), Replicate 1 (Magnaporthe grisea) [%] | Antifungal rate of Magnaporthe grisea (%), Replicate 2 (Magnaporthe grisea) [%] | Antifungal rate of Magnaporthe grisea (%), Replicate 3 (Magnaporthe grisea) [%] | Hatching rate (%) ([2]; 0.25 mg/L, Replicate 1) | Hatching rate (%) ([2]; 0.25 mg/L, Replicate 2) | Number of hatched larvae 7 days after insecticide delivery ([2]; 0.25 mg/L, Replicate 1) | Number of hatched larvae 7 days after insecticide delivery ([2]; 0.25 mg/L, Replicate 2) | Hatching rate (%) ([2]; 0.5 mg/L, Replicate 1) | Hatching rate (%) ([2]; 0.5 mg/L, Replicate 2) | Number of hatched larvae 7 days after insecticide delivery ([2]; 0.5 mg/L, Replicate 1) | Number of hatched larvae 7 days after insecticide delivery ([2]; 0.5 mg/L, Replicate 2) | Hatching rate (%) ([2]; 1 mg/L, Replicate 1) | Hatching rate (%) ([2]; 1 mg/L, Replicate 2) | Number of hatched larvae 7 days after insecticide delivery ([2]; 1 mg/L, Replicate 1) | Number of hatched larvae 7 days after insecticide delivery ([2]; 1 mg/L, Replicate 2) | inhibitory activity on the hatching of eggs of Spodoptera litura (in words) [1] | inhibitory effect on the hatching of pest eggs of Tetranychus cinnabarinus (in words) [2] | further results |
| --- | --- | --- | --- | --- | --- | --- | --- | --- | --- | --- | --- | --- | --- | --- | --- | --- | --- | --- | --- | --- |
| CC(COc1ccc(Cl)cc1Cl)OS(=O)OCCF [1′-(R,R)] | strong inhibitory rate | 84.86 | 84.82 | 83.06 | 86.71 | 69.57 | 82.22 | 14 | 8 | 36.84 | 36.51 | 36 | 40 | 25.37 | 8.00 | 50 | 69 |  |  | Hatching rate (%), Replicate 1 ([1]; listed as 1′-(R, R)): 61.82%; Hatching rate (%), Replicate 2 ([1]; listed as 1′-(R, R)): 64.29%; Hatching rate (%), Replicate 3 ([1]; listed as 1′-(R, R)): 62.71%; Number of unhatched larvae 4 days after insecticide delivery, Replicate 1 ([1]; listed as 1′-(R, R)): 21; Number of unhatched larvae 4 days after insecticide delivery, Replicate 2 ([1]; listed as 1′-(R, R)): 20; Number of unhatched larvae 4 days after insecticide delivery, Replicate 3 ([1]; listed as 1′-(R, R)): 22 |
| CC(COc1ccc(Cl)cc1Cl)OS(=O)OCCF [1′-(R,S)] | strong inhibitory rate | 100.09 | 100.26 | 99.74 | 100.26 | 54.17 | 29.17 | 22 | 68 | 1.25 | 5.00 | 79 | 76 | 0.00 | 0.00 | 62 | 42 | good inhibitory activities | excellent inhibitory effects | Hatching rate (%), Replicate 1 ([1]; listed as 1′-(R, S)): 28.33%; Hatching rate (%), Replicate 2 ([1]; listed as 1′-(R, S)): 25.00%; Hatching rate (%), Replicate 3 ([1]; listed as 1′-(R, S)): 20.34%; Number of unhatched larvae 4 days after insecticide delivery, Replicate 1 ([1]; listed as 1′-(R, S)): 43; Number of unhatched larvae 4 days after insecticide delivery, Replicate 2 ([1]; listed as 1′-(R, S)): 48; Number of unhatched larvae 4 days after insecticide delivery, Replicate 3 ([1]; listed as 1′-(R, S)): 47 |
| CC(COc1ccc(Cl)cc1Cl)OS(=O)OCCF [1′-(S,R)] | strong inhibitory rate | 99.22 | 95.80 | 102.01 | 99.85 | 42.86 | 44.83 | 28 | 32 | 8.89 | 3.23 | 41 | 60 | 0.00 | 0.00 | 69 | 78 | good inhibitory activities | excellent inhibitory effects | Hatching rate (%), Replicate 1 ([1]; listed as 1′-(S, R)): 27.87%; Hatching rate (%), Replicate 2 ([1]; listed as 1′-(S, R)): 26.98%; Hatching rate (%), Replicate 3 ([1]; listed as 1′-(S, R)): 21.05%; Number of unhatched larvae 4 days after insecticide delivery, Replicate 1 ([1]; listed as 1′-(S, R)): 44; Number of unhatched larvae 4 days after insecticide delivery, Replicate 2 ([1]; listed as 1′-(S, R)): 46; Number of unhatched larvae 4 days after insecticide delivery, Replicate 3 ([1]; listed as 1′-(S, R)): 45 |
| CC(COc1ccc(Cl)cc1Cl)OS(=O)OCCF [1′-(S,S)] | strong inhibitory rate | 81.44 | 84.82 | 83.06 | 76.44 | 64.58 | 69.57 | 17 | 14 | 27.59 | 12.00 | 42 | 66 | 16.36 | 14.63 | 46 | 35 |  |  | Hatching rate (%), Replicate 1 ([1]; listed as 1′-(S, S)): 64.52%; Hatching rate (%), Replicate 2 ([1]; listed as 1′-(S, S)): 63.79%; Hatching rate (%), Replicate 3 ([1]; listed as 1′-(S, S)): 66.07%; Number of unhatched larvae 4 days after insecticide delivery, Replicate 1 ([1]; listed as 1′-(S, S)): 22; Number of unhatched larvae 4 days after insecticide delivery, Replicate 2 ([1]; listed as 1′-(S, S)): 21; Number of unhatched larvae 4 days after insecticide delivery, Replicate 3 ([1]; listed as 1′-(S, S)): 19 |
